# What was measured:
# AQP3 = test: Real time PCR, AQP3 gene expression in RHE; format: cell-based, Human; conditions: for AQP3 (RQ): cold stressed RHE
# Source text: (§1) An experimental model of epidermal dryness, induced by modified room humidity and temperature conditions, has been used to assess the efficacy of 3 cosmetic products characterized by the following compositions SOLUTION 1 Water + trehalose 1% SOLUTION 2 Water + ectoine 0,5% SOLUTION 3 Water + ectoine 0,5% + trehalose 1%.
# (§2) SkinEthic® Reconstructed Human Epidermis (RHE) of 0,5 cm^2 is a fully differentiated epidermis formed after 17 day of air-lift culture of NHK from skin biopsies in a chemically defined medium. The model reproduces epidermal morphology and it has been fully characterized. The good barrier function, batch reproducibility and low variability in terms of permeability for probe molecules have been described in the Literature compared to human ex-vivo models.
# (§3) For the three steps, ready to use reagents were used. The RNAqueous method is a rapid, phenol free, filter based RNA isolation system used to extract the total RNA from cellular samples. The High Capacity cDNA Reverse Transcription kit was used to synthetize cDNA from RNA. The instrument Applied Biosystems 7500 Fast Real Time PCR with fluorescent-based PCR chemistry, the TaqMan assay, was used to study gene expression of significant biomarkers. Gene expression is the process by which the inheritable information in a gene, such as the DNA sequence, is made into a functional gene product, such as protein or RNA. Relative quantification determines the change in the expression of a nucleic acid sequence in a test sample relative to the same sequence in a calibrator sample. Beta-actin was used as an endogenous control gene to normalize input amounts.
# (§4) Each replicate was assessed in triplicate. At the 2X TaqMan Fast Universal PCR Master Mix was added Taqman gene expression assay and cDNA (25 ng) for a total volume of 25 µL. The Thermal condition steps in the ABI PRISM 7500 Fast are: 95°C 20 sec; 40 cycles (95°C 3 sec +60°C 30 sec).
# (§5) Fluorescence data of the RT-PCR generated by the thermocycler ABI PRISM 7500 Fast, are collected by the internal software SDS 2.0.5 and the Raw Data (RQ study results) are printed and exported in Excel.
# (§6) Because each cycle in the PCR reaction corresponds to a 2-fold increase in PCR product, a difference of one in threshold cycle number represents a 2-fold difference in the expression of a particular gene compared to the calibrator sample and can be considered as significant. 95% of confidence level is used by the software to calculate the errors.
# (§7) The cold stress performed by 30' induction at -20°C corresponds to a block of water flux: the treatment has been done at this moment and followed by 16h and 48h recovery allowing to monitor the dynamic of the genomic response and to study product mechanism of action: the fig.3 described RHE's physiological response of saline solution treatment and glycerol compared to the RHE physiological response of the same treated with SOLUTIONS 1,2,3.
# [1] = system: Reconstructed Human Epidermis (RHE); test: LDH quantification (membrane integrity / viability) in cold-stress epidermal dryness model; format: cell-based
# Source text: as §1, §2
# Immediately after arrival in the laboratory, the RHE were transferred to a 6-well plate previously filled with maintenance medium (1 mL/well) at room temperature and incubated at 37°C, 5% CO2, saturated humidity. The test has been started the day after the arrival.
# The cell membrane forms a functional barrier around the cell, and traffic into and out of the cell is highly regulated by transporters, receptors and secretion pathways. When cells are damaged, they become 'leaky' and this forms the basis for the second type of assay. Membrane integrity is determined by measuring lactate dehydrogenase (LDH) in the extracellular medium. This enzyme is normally present in the cytosol, and cannot be measured extracellularly unless cell damage has occurred. […] The culture supernatant is collected and incubated with the reaction mixture including the kit (20 min, room T°, in the dark). An increase in the amount of dead or plasma membrane-damaged cells results in an increase of the LDH enzyme activity in the culture media. This increase in the amount of enzyme activity in the supernatant directly correlates to the amount of formazan formed during a defined time period therefore, the amount of color formed in the assay is proportional to the number of lysed cells.
# The higher optical density has been quantified in the media of stressed RHE and used as 100 % higher citotoxicity value.
# HSP1A1 = test: Real time PCR, HSP1A1 (HSP 72) gene expression in RHE; format: cell-based, Human; conditions: for HSP 72 (RQ): cold stressed RHE, calibrator stressed saline =1 (Fig. 7)
# Source text: as §1, §2, §3, §4, §5, §6, §7
structure (smiles),measurement,setting,value
"OCC(O)CO [Glycerin 5%, Glycerin]",AQP3 Gene expression (RQ),"AQP3; applied after 30' stress induction, 48h recovery, calibrator CONTROL RHE CN=1 (Fig. 3)",reduced
same,AQP3 (RQ),"AQP3; 16H recovery, calibrator RHE STRESSED SALINE =1","0,437"
same,AQP3 (RQ),"AQP3; 48H recovery, calibrator RHE STRESSED SALINE =1 (Fig. 4), 2880 min","0,409"
same,AQP3 (RQ),"AQP3; 48H recovery, calibrator RHE STRESSED SALINE =1 (Fig. 4), listed as Glycerol 5%",reduced
same,AQP3 Gene expression (RQ),"AQP3; non stressed but treated RHE, standard conditions, 16h, calibrator CN 16h=1 (Fig. 1)",significantly reduced
same,AQP3 Gene expression (RQ),"AQP3; non stressed but treated RHE, standard conditions, 48h, calibrator CN 48h=1 (Fig. 1)","1,694"
same,"citotoxicity (LDH release), verbal assessment","[1]; 16h and 48h, standard conditions (for Glycerin 5% also stressed conditions)",not citotoxic
same,% VIABILITY,"[1]; STANDARD conditions (without stress), 30 MIN + 16H","96,08%"
same,% VIABILITY,"[1]; STANDARD conditions (without stress), 30 MIN + 48H","63,14%"
same,% VIABILITY,"[1]; cold stressed RHE (30 MIN at -20°C), product applied, 16H recovery","80,70%"
same,% VIABILITY,"[1]; cold stressed RHE (30 MIN at -20°C), product applied, 48H recovery","61,11%"
same,HSP 72 (RQ),HSP1A1; 16H recovery,down-regulation
same,HSP 72 (RQ),"HSP1A1; 16H recovery, 960 min","0,139"
same,HSP 72 (RQ),HSP1A1; 48H recovery,"0,437"
same,HSP1A1 Gene expression,"HSP1A1; non stressed but treated RHE, standard condition, 16h, calibrator CN 16h=1 (Fig. 5)",significantly reduced
same,HSP1A1 (HSP 72) Gene expression,"HSP1A1; not stressed RHE, 48h treatment, calibrator CN 48h=1 (Fig. 5)",over expression
same,HSP 72 expression,"HSP1A1; stressed RHE, 16h recovery, calibrator positive stressed control (Fig. 6)",reduced

# Source: patent EP2695600A1, “Dermal cosmetic compositions having osmoprotecting activity” (Unifarco S.p.A., priority 2012, dated 2014)
